According to ChEMBL document CHEMBL4414672, “Synthesis of certain benzothieno[3,2-d]pyrimidine derivatives as a selective SIRT2 inhibitors” (Eur J Med Chem, 2020):
In brackets after ≈: the same amount, converted by molar mass.

Experiments:
SK-MEL-2 = experiment: Growth inhibition of human SK-MEL-2 cells at 10^-5 M incubated for 48 hrs by sulforhodamine B assay; type: functional; details: SK-MEL-2, 48 h, read-out: GI
BT-549 = experiment: Growth inhibition of human BT549 cells at 10^-5 M incubated for 48 hrs by sulforhodamine B assay; type: functional; details: BT-549, 48 h, read-out: GI
SF-539 = experiment: Growth inhibition of human SF539 cells at 10^-5 M incubated for 48 hrs by sulforhodamine B assay; type: functional; details: SF-539, 48 h, read-out: GI
MDA-MB-468 = experiment: Growth inhibition of human MDA-MB-468 cells at 10^-5 M incubated for 48 hrs by sulforhodamine B assay; type: functional; details: MDA-MB-468, 48 h, read-out: GI
KM12 = experiment: Growth inhibition of human KM12 cells at 10^-5 M incubated for 48 hrs by sulforhodamine B assay; type: functional; details: KM12, 48 h, read-out: GI
HCC 2998 = experiment: Growth inhibition of human HCC2998 cells at 10^-5 M incubated for 48 hrs by sulforhodamine B assay; type: functional; details: HCC 2998, 48 h, read-out: GI
HOP-62 = experiment: Growth inhibition of human HOP62 cells at 10^-5 M incubated for 48 hrs by sulforhodamine B assay; type: functional; details: HOP-62, 48 h, read-out: GI
[1] = target: T1, NAD-dependent protein deacetylase sirtuin-2 (Homo sapiens, UniProt Q8IXJ6); experiment: Inhibition of SIRT2 (unknown origin) using fluorogenic substrate assessed as deacetylase activity incubated for 45 mins by fluorescence assay
T1 sequence (Q8IXJ6 whole entry): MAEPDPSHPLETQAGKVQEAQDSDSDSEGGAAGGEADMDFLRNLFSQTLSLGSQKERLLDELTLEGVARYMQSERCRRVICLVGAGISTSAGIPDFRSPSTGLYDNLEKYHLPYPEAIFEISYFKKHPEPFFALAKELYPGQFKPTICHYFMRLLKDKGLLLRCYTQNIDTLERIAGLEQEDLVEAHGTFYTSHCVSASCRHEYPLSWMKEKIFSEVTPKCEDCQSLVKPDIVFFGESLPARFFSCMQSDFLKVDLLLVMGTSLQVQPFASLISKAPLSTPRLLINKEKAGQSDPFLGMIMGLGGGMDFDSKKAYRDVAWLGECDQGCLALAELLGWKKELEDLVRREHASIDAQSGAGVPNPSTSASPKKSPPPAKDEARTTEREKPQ

PC-3 = experiment: Growth inhibition of human PC3 cells at 10^-5 M incubated for 48 hrs by sulforhodamine B assay; type: functional; details: PC-3, 48 h, read-out: GI
UACC-257 = experiment: Growth inhibition of human UACC257 cells at 10^-5 M incubated for 48 hrs by sulforhodamine B assay; type: functional; details: UACC-257, 48 h, read-out: GI
HT-29 = experiment: Growth inhibition of human HT-29 cells at 10^-5 M incubated for 48 hrs by sulforhodamine B assay; type: functional; details: HT-29, 48 h, read-out: GI
UO-31 [2] = experiment: Cytotoxicity against human UO31 cells assessed as reduction in cell viability after 24 hrs by MTT assay; type: functional, cell-based; details: UO-31, 24 h
MCF7 = experiment: Cytotoxicity against human MCF7 cells assessed as reduction in cell viability after 24 hrs by MTT assay; type: functional, cell-based; details: MCF7, 24 h
MDA-MB-435 = experiment: Growth inhibition of human MDA-MB-435 cells at 10^-5 M incubated for 48 hrs by sulforhodamine B assay; type: functional; details: MDA-MB-435, 48 h, read-out: GI
COLO 205 = experiment: Growth inhibition of human COLO205 cells at 10^-5 M incubated for 48 hrs by sulforhodamine B assay; type: functional; details: COLO 205, 48 h, read-out: GI
NCI-H226 = experiment: Growth inhibition of human NCI-H226 cells at 10^-5 M incubated for 48 hrs by sulforhodamine B assay; type: functional; details: NCI-H226, 48 h, read-out: GI
U-251 = experiment: Growth inhibition of human U251 cells at 10^-5 M incubated for 48 hrs by sulforhodamine B assay; type: functional; details: U-251, 48 h, read-out: GI
K562 = experiment: Growth inhibition of human K562 cells at 10^-5 M incubated for 48 hrs by sulforhodamine B assay; type: functional; details: K562, 48 h, read-out: GI
UO-31 [3] = experiment: Growth inhibition of human UO31 cells at 10^-5 M incubated for 48 hrs by sulforhodamine B assay; type: functional; details: UO-31, 48 h, read-out: GI
HOP-92 = experiment: Growth inhibition of human HOP92 cells at 10^-5 M incubated for 48 hrs by sulforhodamine B assay; type: functional; details: HOP-92, 48 h, read-out: GI
CAKI-1 = experiment: Growth inhibition of human Caki1 cells at 10^-5 M incubated for 48 hrs by sulforhodamine B assay; type: functional; details: CAKI-1, 48 h, read-out: GI
OVCAR-4 = experiment: Growth inhibition of human OVCAR4 cells at 10^-5 M incubated for 48 hrs by sulforhodamine B assay; type: functional; details: OVCAR-4, 48 h, read-out: GI
EKVX = experiment: Growth inhibition of human EKVX cells at 10^-5 M incubated for 48 hrs by sulforhodamine B assay; type: functional; details: read-out: GI
[4] = target: T1, NAD-dependent protein deacetylase sirtuin-2; experiment: (§1) Inhibition of SIRT2 (unknown origin) assessed as increase in alpha-tubulin acetylation after 2 hrs by alpha-tubulin acetyl-K40 assay
[5] = target: NAD-dependent protein deacetylase sirtuin-2 (Homo sapiens) (UniProt Q8IXJ6); experiment: as §1
[6] = target: NAD-dependent protein deacetylase sirtuin-3, mitochondrial (Homo sapiens, UniProt Q9NTG7); experiment: Inhibition of SIRT3 (unknown origin) using fluorogenic substrate assessed as deacetylase activity incubated for 45 mins by fluorescence assay
[7] = target: NAD-dependent protein deacetylase sirtuin-1 (Homo sapiens, UniProt Q96EB6); experiment: Inhibition of SIRT1 (unknown origin) using fluorogenic substrate assessed as deacetylase activity incubated for 45 mins by fluorescence assay
Chain of NAD-dependent protein deacetylase sirtuin-1 (Q96EB6 whole entry): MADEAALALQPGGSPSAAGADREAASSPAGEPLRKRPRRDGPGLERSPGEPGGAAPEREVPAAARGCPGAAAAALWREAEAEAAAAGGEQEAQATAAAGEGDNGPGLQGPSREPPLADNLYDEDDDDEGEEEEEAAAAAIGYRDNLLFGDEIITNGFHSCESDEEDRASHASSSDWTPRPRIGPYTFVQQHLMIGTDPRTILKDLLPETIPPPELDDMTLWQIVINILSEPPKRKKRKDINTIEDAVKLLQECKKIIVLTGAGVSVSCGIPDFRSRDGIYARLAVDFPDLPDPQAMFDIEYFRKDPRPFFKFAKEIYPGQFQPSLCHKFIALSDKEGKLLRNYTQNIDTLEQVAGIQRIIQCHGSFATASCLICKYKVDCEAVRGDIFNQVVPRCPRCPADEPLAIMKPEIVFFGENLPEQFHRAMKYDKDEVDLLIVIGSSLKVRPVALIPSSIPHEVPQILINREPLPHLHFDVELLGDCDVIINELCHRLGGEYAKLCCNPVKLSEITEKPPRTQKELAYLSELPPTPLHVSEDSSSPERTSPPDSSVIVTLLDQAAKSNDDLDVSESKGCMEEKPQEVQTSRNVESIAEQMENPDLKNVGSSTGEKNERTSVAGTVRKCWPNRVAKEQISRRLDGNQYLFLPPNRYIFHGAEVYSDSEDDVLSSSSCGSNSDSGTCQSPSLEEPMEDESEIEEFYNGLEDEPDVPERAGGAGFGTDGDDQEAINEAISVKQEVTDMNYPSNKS

Chain of NAD-dependent protein deacetylase sirtuin-3, mitochondrial (Q9NTG7 whole entry): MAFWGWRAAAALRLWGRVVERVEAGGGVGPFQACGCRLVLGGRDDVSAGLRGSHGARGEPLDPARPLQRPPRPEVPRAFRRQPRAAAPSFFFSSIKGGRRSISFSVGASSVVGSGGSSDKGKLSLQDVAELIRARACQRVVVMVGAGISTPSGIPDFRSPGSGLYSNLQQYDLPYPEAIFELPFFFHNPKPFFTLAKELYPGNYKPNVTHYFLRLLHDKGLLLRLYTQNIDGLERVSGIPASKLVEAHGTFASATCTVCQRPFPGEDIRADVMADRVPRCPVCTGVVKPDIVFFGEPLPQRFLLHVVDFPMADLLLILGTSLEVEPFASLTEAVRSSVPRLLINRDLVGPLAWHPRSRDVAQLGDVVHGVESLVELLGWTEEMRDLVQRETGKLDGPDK

Structure (SMILES)	inhibition of growth at 10 µM (SK-MEL-2)	inhibition of growth at 10 µM (BT-549)	inhibition of growth at 10 µM (SF-539)	inhibition of growth at 10 µM (MDA-MB-468)	inhibition of growth at 10 µM (KM12)	inhibition of growth at 10 µM (HCC 2998)	inhibition of growth at 10 µM (HOP-62)	IC50 [1]	inhibition of growth at 10 µM (PC-3)	inhibition of growth at 10 µM (UACC-257)	inhibition of growth at 10 µM (HT-29)	IC50 (UO-31 [2])	IC50 (MCF7)	inhibition of growth at 10 µM (MDA-MB-435)	inhibition of growth at 10 µM (COLO 205)	inhibition of growth at 10 µM (NCI-H226)	inhibition of growth at 10 µM (U-251)	inhibition of growth at 10 µM (K562)	inhibition of growth at 10 µM (UO-31 [3])	inhibition of growth at 10 µM (HOP-92)	further results
Cc1cc(C)n(C2=Nc3c(sc4ccc(Cl)cc34)C(c3cccc([N+](=O)[O-])c3)N2)n1 (centres undefined)	-5.1%	-17.8%	-0.76%	8.16%	2.61%	-5.86%	18.2%	19.3 µM	18.6%	-4.2%	-2.6%	9.62 µg/mL (≈ 22 µM)	1.67 µg/mL (≈ 3.81 µM)	-3.52%	-5.86%	17.1%	-3.95%	4.14%	43.7%	-4.25%	inhibition of growth at 10 µM (CAKI-1): 26.4%; inhibition of growth at 10 µM (OVCAR-4): -2.96%; inhibition of growth at 10 µM (EKVX): 24.2%
NC(=O)CSC1=Nc2c(sc3ccc(Cl)cc23)C(c2cccc([N+](=O)[O-])c2)N1 (centres undefined)	-13%	-8.76%	0.81%	2.9%	-8.1%	-5.21%	6.5%	17 µM	7.5%	-1.31%	-3.66%	46.8 µg/mL (≈ 108 µM)	5.06 µg/mL (≈ 11.7 µM)	-11.3%	-5.21%	10.4%	-1.2%	2.53%	34.3%	-21.6%	inhibition of growth at 10 µM (CAKI-1): 19.2%; inhibition of growth at 10 µM (OVCAR-4): -4.84%; inhibition of growth at 10 µM (EKVX): 23.6%
O=[N+]([O-])c1cccc(C2c3sc4ccc(Cl)cc4c3N=C3NN=C(c4cccc(F)c4)N32)c1 (centres undefined)	-11.2%	-8.29%	4.75%	-20.8%	2.47%	-6.34%	14.2%	8.47 µM	7.25%	-6.09%	-7.53%	10.5 µg/mL (≈ 21.9 µM)	0.23 µg/mL (≈ 0.481 µM)	-11.2%	-6.34%	14%	-1.33%	6.99%	41.4%	-18%	inhibition of growth at 10 µM (CAKI-1): 21.9%; inhibition of growth at 10 µM (OVCAR-4): 0.57%; inhibition of growth at 10 µM (EKVX): 14.8%
O=[N+]([O-])c1cccc(C2c3sc4ccc(Cl)cc4c3N=C3NN=CN32)c1 (centres undefined)	-3.53%	16.9%	6.94%	-15.5%	3.7%	-6.88%	10.8%	6.64 µM	-9.08%	-3.45%	-15.1%	26.2 µg/mL (≈ 68.4 µM)	9.8 µg/mL (≈ 25.5 µM)	-17.5%	-6.88%	21.7%	-0.13%	-4.99%	23%	-7.25%	inhibition of growth at 10 µM (CAKI-1): -3.12%; inhibition of growth at 10 µM (OVCAR-4): 0.93%; inhibition of growth at 10 µM (EKVX): 15%
O=C1CSC2=Nc3c(sc4ccc(Cl)cc34)C(c3ccc4ccccc4c3)N12 (centres undefined)	-6.76%	-8.05%	-2.59%	2.47%	3.7%	-30.1%	6.69%	4.99 µM	7.88%	1.52%	-0.5%	12.4 µg/mL (≈ 29.5 µM)	2.34 µg/mL (≈ 5.56 µM)	-5.65%	-3.73%	16.7%	-7.94%	7.65%	37.4%	6.48%	IC50 [4]: 76.1 µM; inhibition [5]: Dose-dependent effect; IC50 [6]: 48.7 µM; IC50 [7]: 4.3 µM; inhibition of growth at 10 µM (CAKI-1): 27.5%; inhibition of growth at 10 µM (OVCAR-4): 3.47%; inhibition of growth at 10 µM (EKVX): 7.05%
